Results published in patent US20240390429A1, “METHOD AND FORMULATION FOR TREATING RESPIRATORY DISEASES” (ENTEROBIOME INC., priority 2019, published 2024).
In brackets after ≈: the same amount, converted by molar mass.

What was measured:
Type in all cases: cell-based
[1] = test system: Akkermansia muciniphila EB-AMDK19; experiment: MIC by broth microdilution (CLSI), isolated strain; settings: for MIC: Akkermansia muciniphila, EBAMDK19, test strain EB-AMDK19, broth microdilution; for Susceptibility category by MIC breakpoints: test strain EB-AMDK19, breakpoints per antibiotic in c1-c3
[2] = test system: Akkermansia muciniphila ATCC BAA-835; experiment: MIC by broth microdilution (CLSI), type strain; settings: for MIC: Akkermansia muciniphila, ATCCBAA835, test strain ATCC BAA-835, broth microdilution; for Susceptibility category by MIC breakpoints: test strain ATCC BAA-835, breakpoints per antibiotic in c1-c3
[3] = test system: Bacteroides thetiotaomicron ATCC 29741; experiment: MIC by broth microdilution (CLSI), QC strain

Row | Compound | MIC [1] | Susceptibility category by MIC breakpoints [1] | MIC [2] | Susceptibility category by MIC breakpoints [2] | MIC ([3]; Bacteroides, ATCC29741) | MIC ([3]; QC strain ATCC 29741, broth microdilution)
1 | O=C(N[C@H](CO)[C@H](O)c1ccc([N+](=O)[O-])cc1)C(Cl)Cl [CHL, chloramphenicol] | 4 µg/mL (≈ 12.4 µM) | (S) | 4 µg/mL (≈ 12.4 µM) | (S) | 8 µg/mL (≈ 24.8 µM) | 
2 | Piperacillin-tazobactam [PTZ] |  | (S) |  | (S) |  | 8/4
3 | Cc1ncc([N+](=O)[O-])n1CCO [MTZ, metronidazole] | 0.5 µg/mL (≈ 2.92 µM) | (S) | ≤ 0.25 µg/mL | (S) | 2 µg/mL (≈ 11.7 µM) | 
4 | COc1c(N2C[C@@H]3CCCN[C@@H]3C2)c(F)cc2c(=O)c(C(=O)O)cn(C3CC3)c12 [MXF, moxifloxacin] | > 32 µg/mL | (R) | > 32 µg/mL | (R) | 8 µg/mL (≈ 19.9 µM) | 
5 | CCC[C@@H]1C[C@@H](C(=O)N[C@@H]([C@H]2O[C@H](SC)[C@H](O)[C@@H](O)[C@H]2O)[C@H](C)Cl)N(C)C1 [CLI, clindamycin] | 4 µg/mL (≈ 9.41 µM) | (I) | ≤ 0.125 µg/mL | (S) |  | 
6 | CO/N=C(\C(=O)N[C@@H]1C(=O)N2C(C(=O)O)=CCS[C@H]12)c1csc(N)n1 [CTZ, ceftizoxime] | 1 µg/mL (≈ 2.61 µM) | (S) | 2 µg/mL (≈ 5.22 µM) | (S) | 16 µg/mL (≈ 41.7 µM) | 
7 | C[C@@H](O)[C@H]1C(=O)N2C(C(=O)O)=C(S[C@@H]3CN[C@H](C(=O)N(C)C)C3)[C@H](C)[C@H]12 [MEM, meropenem] | 0.5 µg/mL (≈ 1.3 µM) | (S) | 1 µg/mL (≈ 2.61 µM) | (S) | 0.5 µg/mL (≈ 1.3 µM) | 
